In ChEMBL document CHEMBL4428135, “Varying Chirality Across Nicotinic Acetylcholine Receptor Subtypes: Selective Binding of Quinuclidine Triazole Compounds” (ACS Med Chem Lett, 2016):
pKi: −log10 of the molar value. The source made the active and inactive calls. No cut-off for these calls is given here.

Legend:
[1] = biological target: Neuronal acetylcholine receptor subunit alpha-7 (Rattus norvegicus, UniProt Q05941); test: Displacement of [3H]MLA from alpha7 nAChR in rat brain membranes after 2 hrs; assay type: cell membranes
Sequence of Neuronal acetylcholine receptor subunit alpha-7 (Rattus norvegicus, UniProt Q05941) (Q05941 whole entry): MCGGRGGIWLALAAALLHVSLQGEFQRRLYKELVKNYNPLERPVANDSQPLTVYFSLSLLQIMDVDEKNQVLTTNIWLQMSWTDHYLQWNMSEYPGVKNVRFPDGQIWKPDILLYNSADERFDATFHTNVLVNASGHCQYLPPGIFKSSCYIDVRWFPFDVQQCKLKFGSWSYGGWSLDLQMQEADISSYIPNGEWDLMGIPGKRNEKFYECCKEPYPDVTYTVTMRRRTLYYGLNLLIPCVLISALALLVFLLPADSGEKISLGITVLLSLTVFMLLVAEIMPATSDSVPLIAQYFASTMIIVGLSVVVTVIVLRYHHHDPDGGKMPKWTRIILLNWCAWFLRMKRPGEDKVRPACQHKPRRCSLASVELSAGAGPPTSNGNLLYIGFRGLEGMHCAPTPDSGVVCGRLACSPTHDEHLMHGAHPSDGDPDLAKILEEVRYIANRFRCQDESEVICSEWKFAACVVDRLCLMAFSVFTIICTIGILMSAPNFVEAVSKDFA

[2] = biological target: T1, Neuronal acetylcholine receptor subunit alpha-7 (Homo sapiens, UniProt P36544); test: Displacement of [3H]MLA from human alpha7 nAChR transfected in human SH-SY5Y cell membranes after 120 mins by liquid scintillation counting
T1 sequence (P36544 whole entry): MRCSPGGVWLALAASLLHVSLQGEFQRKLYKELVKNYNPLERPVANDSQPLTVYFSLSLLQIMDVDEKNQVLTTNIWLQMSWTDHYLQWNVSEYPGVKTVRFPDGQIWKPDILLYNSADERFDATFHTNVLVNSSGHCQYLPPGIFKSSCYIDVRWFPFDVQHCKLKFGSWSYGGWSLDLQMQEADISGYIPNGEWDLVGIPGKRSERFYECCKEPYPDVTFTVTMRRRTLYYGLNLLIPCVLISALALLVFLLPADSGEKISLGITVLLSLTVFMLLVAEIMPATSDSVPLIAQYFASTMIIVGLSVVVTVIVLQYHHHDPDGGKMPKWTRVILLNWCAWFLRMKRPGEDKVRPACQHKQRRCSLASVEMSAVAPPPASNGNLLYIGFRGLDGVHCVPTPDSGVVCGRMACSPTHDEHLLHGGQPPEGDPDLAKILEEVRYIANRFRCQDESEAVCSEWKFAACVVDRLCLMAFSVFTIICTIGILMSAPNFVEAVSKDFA

[3] = biological target: T2, Neuronal acetylcholine receptor; alpha3/beta4 (Homo sapiens, UniProt P30926+P32297); test: Displacement of [3H]epibatidine from human alpha3beta4 nAChR transfected in HEK293 cell membranes after 120 mins by liquid scintillation counting
T2 sequence (P30926 whole entry): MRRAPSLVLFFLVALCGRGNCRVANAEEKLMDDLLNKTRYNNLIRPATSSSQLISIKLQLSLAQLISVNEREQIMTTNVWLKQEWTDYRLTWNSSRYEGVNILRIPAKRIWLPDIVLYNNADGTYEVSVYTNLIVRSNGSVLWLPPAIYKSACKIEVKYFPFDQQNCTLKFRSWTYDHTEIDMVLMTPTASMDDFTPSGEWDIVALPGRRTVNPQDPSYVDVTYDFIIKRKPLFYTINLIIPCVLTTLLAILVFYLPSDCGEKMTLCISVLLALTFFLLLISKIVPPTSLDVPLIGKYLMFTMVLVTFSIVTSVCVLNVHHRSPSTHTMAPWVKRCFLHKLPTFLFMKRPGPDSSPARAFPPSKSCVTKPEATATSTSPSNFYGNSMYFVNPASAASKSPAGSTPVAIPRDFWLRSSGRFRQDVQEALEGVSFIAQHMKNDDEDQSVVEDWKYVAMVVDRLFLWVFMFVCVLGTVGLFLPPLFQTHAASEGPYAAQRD
T2 sequence (P32297 whole entry): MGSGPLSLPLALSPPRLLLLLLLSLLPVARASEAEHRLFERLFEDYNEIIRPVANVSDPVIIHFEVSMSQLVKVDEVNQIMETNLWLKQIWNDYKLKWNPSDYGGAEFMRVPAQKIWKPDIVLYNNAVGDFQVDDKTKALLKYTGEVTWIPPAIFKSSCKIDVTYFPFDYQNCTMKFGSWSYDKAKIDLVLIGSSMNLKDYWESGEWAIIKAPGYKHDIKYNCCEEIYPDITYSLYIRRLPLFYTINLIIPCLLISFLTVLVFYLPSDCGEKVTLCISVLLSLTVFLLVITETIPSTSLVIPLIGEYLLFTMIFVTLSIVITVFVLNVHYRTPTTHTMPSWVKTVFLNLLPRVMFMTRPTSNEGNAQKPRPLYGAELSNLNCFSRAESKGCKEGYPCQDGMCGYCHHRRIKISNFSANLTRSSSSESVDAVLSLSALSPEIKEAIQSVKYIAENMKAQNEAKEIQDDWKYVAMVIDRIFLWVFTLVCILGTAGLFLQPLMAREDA

[4] = biological target: T3, Neuronal acetylcholine receptor; alpha4/beta2 (Homo sapiens, UniProt P17787+P43681); test: Displacement of [3H]epibatidine from human alpha4beta2 nAChR transfected in HEK293 cell membranes after 120 mins by liquid scintillation counting
T3 sequence (P17787 whole entry): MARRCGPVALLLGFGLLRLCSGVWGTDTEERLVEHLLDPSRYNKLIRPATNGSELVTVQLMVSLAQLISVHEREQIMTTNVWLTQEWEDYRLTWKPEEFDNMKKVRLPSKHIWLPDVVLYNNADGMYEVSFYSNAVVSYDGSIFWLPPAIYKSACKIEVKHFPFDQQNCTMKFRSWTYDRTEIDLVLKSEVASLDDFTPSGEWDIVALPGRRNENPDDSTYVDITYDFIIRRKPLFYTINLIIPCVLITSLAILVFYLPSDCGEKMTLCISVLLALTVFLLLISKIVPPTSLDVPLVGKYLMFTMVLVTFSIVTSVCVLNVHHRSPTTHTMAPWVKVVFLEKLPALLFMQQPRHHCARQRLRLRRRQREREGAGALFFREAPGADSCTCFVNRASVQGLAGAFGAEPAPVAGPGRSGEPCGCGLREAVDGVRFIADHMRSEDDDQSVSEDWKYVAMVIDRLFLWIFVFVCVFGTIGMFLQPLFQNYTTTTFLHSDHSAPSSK
T3 sequence (P43681 whole entry): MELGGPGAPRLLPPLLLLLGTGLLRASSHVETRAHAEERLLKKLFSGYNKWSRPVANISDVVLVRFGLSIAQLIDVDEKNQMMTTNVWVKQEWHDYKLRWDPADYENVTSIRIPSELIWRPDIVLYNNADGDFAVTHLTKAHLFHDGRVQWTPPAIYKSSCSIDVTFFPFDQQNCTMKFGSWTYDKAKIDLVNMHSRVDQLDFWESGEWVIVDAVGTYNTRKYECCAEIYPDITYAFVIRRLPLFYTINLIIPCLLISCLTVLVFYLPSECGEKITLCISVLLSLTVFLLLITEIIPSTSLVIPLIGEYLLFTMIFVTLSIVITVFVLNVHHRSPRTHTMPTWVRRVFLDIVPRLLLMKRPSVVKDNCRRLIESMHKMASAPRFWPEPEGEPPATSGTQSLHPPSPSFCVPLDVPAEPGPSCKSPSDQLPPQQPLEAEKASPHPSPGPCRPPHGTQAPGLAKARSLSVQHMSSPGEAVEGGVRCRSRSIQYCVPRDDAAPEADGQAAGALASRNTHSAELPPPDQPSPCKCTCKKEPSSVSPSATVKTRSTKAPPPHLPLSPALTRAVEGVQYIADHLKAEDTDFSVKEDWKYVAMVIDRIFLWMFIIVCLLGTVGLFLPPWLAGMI

Homo sapiens [5] = species: Homo sapiens; test: Selectivity index, reciprocal of ratio of Ki for alpha7 nAChR transfected in human SH-SY5Y cells to KI for human alpha4beta2 nAChR transfected in HEK293 cells; assay type: cell-based
Homo sapiens [6] = species: Homo sapiens; test: Selectivity index, reciprocal of ratio of Ki for human alpha3beta4 nAChR transfected in HEK293 cells to Ki for human alpha4beta2 nAChR transfected in HEK293 cells; assay type: cell-based
[7] = biological target: Acetylcholine receptor subunit alpha (Homo sapiens) (UniProt P02708); test: Displacement of [125I]alpha-bungarotoxin from human N-muscle type nAChR alpha1 expressed in human RD cells at 1 uM; assay type: cell-based
Sequence of Acetylcholine receptor subunit alpha (Homo sapiens) (P02708 whole entry): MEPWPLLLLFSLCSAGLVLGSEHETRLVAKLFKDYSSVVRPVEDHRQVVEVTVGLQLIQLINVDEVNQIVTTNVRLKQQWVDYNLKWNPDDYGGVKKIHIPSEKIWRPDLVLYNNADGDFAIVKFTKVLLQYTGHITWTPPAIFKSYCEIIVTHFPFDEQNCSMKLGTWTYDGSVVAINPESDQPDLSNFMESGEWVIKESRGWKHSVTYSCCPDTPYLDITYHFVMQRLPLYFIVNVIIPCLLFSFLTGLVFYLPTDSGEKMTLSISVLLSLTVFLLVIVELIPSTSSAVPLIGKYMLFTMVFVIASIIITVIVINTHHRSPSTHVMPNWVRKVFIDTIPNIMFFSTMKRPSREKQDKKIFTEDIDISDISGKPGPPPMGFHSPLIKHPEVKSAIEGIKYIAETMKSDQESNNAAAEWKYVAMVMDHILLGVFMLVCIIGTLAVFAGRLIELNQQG

[8] = biological target: Serotonin 3 (5-HT3) receptor (Homo sapiens) (UniProt P46098+A5X5Y0+O95264+Q70Z44+Q8WXA8); test: Displacement of [3H]BRL-43694 from human recombinant 5-HT3 receptor expressed in CHO cells at 100 nM; assay type: cell-based
[9] = biological target: T1, Neuronal acetylcholine receptor subunit alpha-7; test: Agonist activity at human alpha7 nAChR expressed in human SH-SY5Y cells assessed as increase in intracellular calcium levels at 10 uM; assay type: cell-based
[10] = biological target: T2, Neuronal acetylcholine receptor; alpha3/beta4; test: Agonist activity at human alpha3beta4 nAChR expressed in HEK293 cells assessed as increase in intracellular calcium levels at 10 uM; assay type: cell-based
Homo sapiens [11] = species: Homo sapiens; test: Selectivity index, reciprocal of ratio of Ki for human alpha7 nAChR transfected in human SH-SY5Y cells to Ki for human alpha3beta4 nAChR transfected in HEK293 cells; assay type: cell-based
[12] = biological target: T2, Neuronal acetylcholine receptor; alpha3/beta4; test: Antagonist activity at human alpha3beta4 nAChR expressed in HEK293 cells assessed as rediution in epibatidine-induced intracellular calcium levels at 10 uM; assay type: cell-based
[13] = biological target: T3, Neuronal acetylcholine receptor; alpha4/beta2; test: Binding affinity to alpha4beta2 nAChR (unknown origin); assay type: protein-complex assay
[14] = biological target: T1, Neuronal acetylcholine receptor subunit alpha-7; test: Binding affinity to alpha7 nAChR (unknown origin)
[15] = biological target: T1, Neuronal acetylcholine receptor subunit alpha-7; test: Displacement of [3H]MLA from human recombinant alpha7 nAChR expressed in HEKtsA201 cells after 1 hr by CNiFERs binding assay; assay type: cell-based
[16] = biological target: T3, Neuronal acetylcholine receptor; alpha4/beta2; test: Displacement of [3H]-(+/-)-epibatidine from human recombinant alpha4beta2 nAChR expressed in HEKtsA201 cells after 1 hr by CNiFERs binding assay; assay type: cell-based
[17] = biological target: T1, Neuronal acetylcholine receptor subunit alpha-7; test: Displacement of [3H]A-585539 from alpha7 nAChR in human cerebral cortex membranes after 75 mins by scintillation counting; assay type: cell membranes
[18] = biological target: Neuronal acetylcholine receptor; alpha4/beta2 (Rattus norvegicus, UniProt P09483+P12390); test: Displacement of [3H]cytisine from alpha4beta2 nAChR in Sprague-Dawley rat brain membranes after 75 mins by scintillation counting; assay type: cell membranes
Sequence of Neuronal acetylcholine receptor; alpha4/beta2 (Rattus norvegicus, UniProt P09483+P12390) (P09483 whole entry): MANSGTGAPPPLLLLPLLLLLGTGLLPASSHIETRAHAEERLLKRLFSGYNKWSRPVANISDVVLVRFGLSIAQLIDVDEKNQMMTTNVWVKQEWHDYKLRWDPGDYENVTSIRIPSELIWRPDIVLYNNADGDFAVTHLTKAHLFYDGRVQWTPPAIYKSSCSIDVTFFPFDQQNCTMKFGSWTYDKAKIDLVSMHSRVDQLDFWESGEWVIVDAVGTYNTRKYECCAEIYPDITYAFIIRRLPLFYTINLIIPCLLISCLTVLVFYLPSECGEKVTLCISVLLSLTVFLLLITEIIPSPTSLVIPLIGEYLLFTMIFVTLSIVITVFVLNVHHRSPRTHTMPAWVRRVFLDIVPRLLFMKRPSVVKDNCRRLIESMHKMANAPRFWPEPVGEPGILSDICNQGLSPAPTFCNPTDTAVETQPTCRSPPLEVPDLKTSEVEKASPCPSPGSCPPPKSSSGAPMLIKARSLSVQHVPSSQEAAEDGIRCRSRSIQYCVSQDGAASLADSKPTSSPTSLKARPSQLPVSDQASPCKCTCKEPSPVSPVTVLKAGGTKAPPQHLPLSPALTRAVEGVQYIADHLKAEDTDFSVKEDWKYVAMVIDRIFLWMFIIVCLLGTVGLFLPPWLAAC
Sequence of Neuronal acetylcholine receptor; alpha4/beta2 (Rattus norvegicus, UniProt P09483+P12390) (P12390 whole entry): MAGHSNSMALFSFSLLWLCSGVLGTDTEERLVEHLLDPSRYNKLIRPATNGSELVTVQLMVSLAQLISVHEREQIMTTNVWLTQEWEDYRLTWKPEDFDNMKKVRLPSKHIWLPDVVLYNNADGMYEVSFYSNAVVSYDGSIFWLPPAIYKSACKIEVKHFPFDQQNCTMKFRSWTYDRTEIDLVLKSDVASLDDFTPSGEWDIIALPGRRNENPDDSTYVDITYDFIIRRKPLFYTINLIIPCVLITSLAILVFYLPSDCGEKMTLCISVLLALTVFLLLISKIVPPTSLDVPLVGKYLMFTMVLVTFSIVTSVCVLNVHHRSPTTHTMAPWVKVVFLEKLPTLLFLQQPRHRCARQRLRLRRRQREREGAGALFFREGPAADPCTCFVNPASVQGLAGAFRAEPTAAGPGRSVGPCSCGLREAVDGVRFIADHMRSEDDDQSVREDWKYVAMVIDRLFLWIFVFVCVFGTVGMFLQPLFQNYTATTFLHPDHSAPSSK

[19] = biological target: T1, Neuronal acetylcholine receptor subunit alpha-7; test: Displacement of [3H] epibatidine from alpha7 nAChR (unknown origin) expressed in HEK293 cells; assay type: cell-based
[20] = biological target: T2, Neuronal acetylcholine receptor; alpha3/beta4; test: Displacement of [3H] epibatidine from alpha3beta4 nAChR (unknown origin) expressed in HEK293 cells; assay type: cell-based
[21] = biological target: T3, Neuronal acetylcholine receptor; alpha4/beta2; test: Displacement of [3H] epibatidine from alpha4beta2 nAChR (unknown origin) expressed in HEK293 cells; assay type: cell-based

With `O=C(N[C@H]1CN2CCC1CC2)c1c[nH]c2ccccc12` the pKi [1] was 8.22.

`Fc1ccc(-c2cn([C@@H]3CN4CCC3CC4)nn2)cc1` gave a pKi [2] of 6.76, a pKi [3] of 8.51 and a pKi [4] of 6.29. It also gave a Ratio (Homo sapiens [5]) of 3, a Ratio (Homo sapiens [6]) of 167 and an inhibition [7] of 2 to 12%. For the same compound, the inhibition [8] was “inactive”, the Activity [9] was “Active” and the Activity [10] was “Active”.

Compound `Fc1ccc(-c2cn([C@H]3CN4CCC3CC4)nn2)cc1` has a pKi [2] of 7.14, a pKi [3] of 6.00 and a pKi [4] of 4.98. For the same compound, the Ratio (Homo sapiens [5]) was 143, the Ratio (Homo sapiens [11]) was 14 and the Ratio (Homo sapiens [6]) was 10. The Activity [9] was “Active” and the inhibition [12] was “Active”.

Work on `Fc1cccc(-c2cn([C@@H]3CN4CCC3CC4)nn2)c1` yielded a pKi [2] of 6.18, a pKi [3] of 8.65 and a pKi [4] of 6.28. For the same compound, the Ratio (Homo sapiens [6]) was 231, the inhibition [7] was 2 to 12% and the inhibition [8] was “inactive”. For the same compound, the Activity [9] was “Active” and the inhibition [12] was “Active”.

In the case of `FCCOc1cccc(-c2cn([C@H]3CN4CCC3CC4)nn2)c1`, the pKi [2] was 7.41, the pKi [3] was 6.25 and the pKi [4] was 5.15. It also gave a Ratio (Homo sapiens [5]) of 182, a Ratio (Homo sapiens [11]) of 14 and a Ratio (Homo sapiens [6]) of 13.

`Fc1ccc(COc2cccc(-c3cn([C@H]4CN5CCC4CC5)nn3)c2)cc1` was tested, and the pKi [2] was 7.48, the pKi [3] was 5.96 and the pKi [4] was 5.19. The Ratio (Homo sapiens [5]) was 193, the Ratio (Homo sapiens [11]) was 33 and the Ratio (Homo sapiens [6]) was 5.9.

With `Fc1ccc(-c2cn(C3CN4CCC3CC4)nn2)cc1` (racemic) the pKi [2] was 7.14, the pKi [3] was 8.07 and the pKi [4] was 6.35. It also gave a Ratio (Homo sapiens [5]) of 6.2 and a Ratio (Homo sapiens [6]) of 53.

Work on `Fc1cccc(-c2cn(C3CN4CCC3CC4)nn2)c1` (racemic) yielded a pKi [2] of 6.88, a pKi [3] of 8.28 and a pKi [4] of 6.13. It also gave a Ratio (Homo sapiens [5]) of 5.6 and a Ratio (Homo sapiens [6]) of 143.

With `c1ccc(COc2cccc(-c3cn([C@H]4CN5CCC4CC5)nn3)c2)cc1` the pKi [2] was 7.65, the pKi [3] was 6.20 and the pKi [4] was 5.30. The Ratio (Homo sapiens [5]) was 225, the Ratio (Homo sapiens [11]) was 28 and the Ratio (Homo sapiens [6]) was 8.

`CN1C2CCCC1CC(Nc1ccccc1Br)C2` (configuration not stated) showed a pKi [13] of 6.32 and a pKi [14] of 6.66.

`FCCCOc1cccc(-c2cn(C3CN4CCC3CC4)nn2)c1` (racemic) was tested, and the pKi [2] was 7.13, the pKi [3] was 7.35 and the pKi [4] was 5.41. For the same compound, the Ratio (Homo sapiens [5]) was 52 and the Ratio (Homo sapiens [6]) was 88.

Work on `Oc1ccc(-c2cn(C3CN4CCC3CC4)nn2)cc1` (racemic) yielded a pKi [2] of 8.02, a pKi [3] of 8.46 and a pKi [4] of 6.20. The Ratio (Homo sapiens [5]) was 65, the Ratio (Homo sapiens [6]) was 182 and the pKi [15] was 7.09. For the same compound, the pKi [16] was less than 5.00.

In the case of `Fc1cccc(-c2cn([C@H]3CN4CCC3CC4)nn2)c1`, the pKi [2] was 6.93, the pKi [3] was 6.44 and the pKi [4] was 5.28. The Ratio (Homo sapiens [5]) was 44, the Ratio (Homo sapiens [11]) was 3.1 and the Ratio (Homo sapiens [6]) was 14. For the same compound, the Activity [9] was “Active” and the Activity [10] was “Active”.

`FCCOc1cccc(-c2cn(C3CN4CCC3CC4)nn2)c1` (racemic) gave a pKi [2] of 7.01, a pKi [3] of 7.68 and a pKi [4] of 5.71. It also gave a Ratio (Homo sapiens [5]) of 20 and a Ratio (Homo sapiens [6]) of 94.

`Fc1ccc(COc2cccc(-c3cn(C4CN5CCC4CC5)nn3)c2)cc1` (racemic) was tested, and the pKi [2] was 6.90, the pKi [3] was 7.86 and the pKi [4] was 5.99. It also gave a Ratio (Homo sapiens [5]) of 8 and a Ratio (Homo sapiens [6]) of 73.

`c1ccc(COc2cccc(-c3cn(C4CN5CCC4CC5)nn3)c2)cc1` (racemic) gave a pKi [2] of 7.04, a pKi [3] of 8.12 and a pKi [4] of 6.18. It also gave a Ratio (Homo sapiens [5]) of 7.3 and a Ratio (Homo sapiens [6]) of 88.

`FCCCOc1cccc(-c2cn([C@@H]3CN4CCC3CC4)nn2)c1` was tested, and the pKi [2] was 7.01, the pKi [3] was 7.71 and the pKi [4] was 5.70. It also gave a Ratio (Homo sapiens [5]) of 20 and a Ratio (Homo sapiens [6]) of 102.

`Oc1ccc(-c2cn([C@@H]3CN4CCC3CC4)nn2)cc1` gave a pKi [2] of 7.53, a pKi [3] of 8.61 and a pKi [4] of 6.34. For the same compound, the Ratio (Homo sapiens [5]) was 16 and the Ratio (Homo sapiens [6]) was 186.

`Fc1ccc(COc2cccc(-c3cn([C@@H]4CN5CCC4CC5)nn3)c2)cc1` gave a pKi [2] of 6.83, a pKi [3] of 8.14 and a pKi [4] of 6.27. The Ratio (Homo sapiens [5]) was 3.6, the Ratio (Homo sapiens [6]) was 75 and the inhibition [7] was 2 to 12%. For the same compound, the inhibition [8] was “Active”.

Work on `Oc1ccc(-c2cn([C@H]3CN4CCC3CC4)nn2)cc1` yielded a pKi [2] of 7.96, a pKi [3] of 6.86 and a pKi [4] of 5.13. The Ratio (Homo sapiens [5]) was 678, the Ratio (Homo sapiens [11]) was 12.7 and the Ratio (Homo sapiens [6]) was 54.

`c1cc2cc(-c3ccc(O[C@H]4CN5CCC4CC5)nn3)ccc2[nH]1` [ABT-107] showed a pKi [17] of 9.66 and a pKi [18] of 5.40.

With `c1ccc(COc2cccc(-c3cn([C@@H]4CN5CCC4CC5)nn3)c2)cc1` the pKi [2] was 6.55, the pKi [3] was 8.18 and the pKi [4] was 6.38. It also gave a Ratio (Homo sapiens [5]) of 1.5, a Ratio (Homo sapiens [6]) of 62 and an inhibition [7] of 2 to 12%. The inhibition [8] was “inactive”.

`FCCOc1cccc(-c2cn([C@@H]3CN4CCC3CC4)nn2)c1` gave a pKi [2] of 7.13, a pKi [3] of 7.93 and a pKi [4] of 5.90. It also gave a Ratio (Homo sapiens [5]) of 17 and a Ratio (Homo sapiens [6]) of 107.

`FC(F)(F)c1ccc2c(c1)[C@@H]1CNC[C@H]2C1` was tested, and the pKi [19] was less than 6.52, the pKi [20] was 7.68 and the pKi [21] was 7.68.

`FCCCOc1cccc(-c2cn([C@H]3CN4CCC3CC4)nn2)c1` was tested, and the pKi [2] was 7.21, the pKi [3] was 5.79 and the pKi [4] was 5.05. For the same compound, the Ratio (Homo sapiens [5]) was 145, the Ratio (Homo sapiens [11]) was 26 and the Ratio (Homo sapiens [6]) was 5.5.
